| SMILES | melting point [°C] |
| --- | --- |
| Brc1ccc(NCc2ccsc2)cc1 | 44 to 46 |
| CC(C)(C)c1ccc(Cn2nccc2N)cc1 | < 17 |
| O=S(=O)(c1ccccc1)N1C2Cc3ccccc3C21 (configuration not stated) | 120 to 122 |
| Cc1ccc(-n2[nH]c(-c3ccco3)cc2=N)cc1 | 93 to 95 |
| Cc1cc(=O)[nH]c(-c2ccncc2)n1 | 241 to 243 |
| COc1c([N+](=O)[O-])ccc2[nH]ncc12 | 219 to 221 |
| c1ccc(N2CCN(CC3CCCNC3)CC2)nc1 (configuration not stated) | 73 to 75 |
| Fc1cc(Br)cc2c(Cl)ccnc12 | 149 to 151 |
| N#Cc1ccc(F)c(CBr)c1 | 44 to 46 |
| Nc1ccnn1-c1ccc(C(F)(F)F)cn1 | 89 to 91 |
| Nc1cc(S(=O)(=O)N2CCCCC2)ccc1Cl | 129 to 131 |
| Nc1ccc(-c2cc3ccccc3o2)cc1 | 281 to 283 |
| NCCCc1c[nH]c2ccccc12 | 62 to 64 |
| CS(=O)(=O)Nc1nnc(N)s1 | 251 to 253 |
| Cc1cc(S(=O)(=O)Cl)ccc1F | 36 to 38 |
| Cc1[nH]n(C(N)=S)c(=O)c1CCO | 153 to 155 |
| Cc1ccc([N+](=O)[O-])cc1C(C)Cl (configuration not stated) | 44 to 46 |
| Cc1cc(N)nn1-c1ccc(F)cc1F | 120 to 122 |
| CCCCCCc1nc(S)c2c(=O)n(C)c(=O)n(CCC)c2n1 | 172 to 174 |
| Nc1cc(Br)c[nH]c1=S | 190 to 192 |
| CCC(c1ccc(Br)cc1)N1CCNCC1 (configuration not stated) | 65 to 67 |

| SMILES | melting point [°C] |
| --- | --- |
| COc1cc(CC#N)ccc1OCC(F)(F)F | 62 to 64 |
| COc1ccc(C(=O)c2ccc(C)cc2)cc1 | 88 to 90 |
| N#CCN1CCC(=O)CC1 | 91 to 93 |
| Cc1ccc(C)c(-n2c(=O)c(N)c(C)n2C)c1 | 19 to 20 |
| FC(F)(F)Oc1cccc2c(Cl)ccnc12 | 51 to 53 |
| Nc1nc2ccccn2n1 | 123 to 125 |
| CC(Br)C(=O)c1ccc(Cl)cc1 (configuration not stated) | 68 to 70 |
| Cc1nn(C(C)C)c(C)c1NC(=O)OCC(F)(F)F | 185 to 187 |
| COc1ccccc1C(=O)c1ccccc1Cl | 59 to 61 |
| Cc1cccc(-n2nc(-c3ccco3)cc2N)c1 | 82 to 84 |
| CC1(C)NCCNC1=O | 113 to 115 |
| N#Cc1cccc(NCc2ccc(Cl)cc2)c1 | 84 to 86 |
| O=C(CBr)c1ccc(Cl)s1 | 113 to 115 |
| Nc1nc2ccc(Br)cn2n1 | 183 to 185 |
| CCOC(=O)/C(C#N)=C/Nc1cc(OC)cc(OC)c1 | 140 to 142 |
| O=[N+]([O-])c1ccc(S(=O)(=O)Cl)c(F)c1 | 72 to 74 |
| CC(CC(N)=NO)NC(=O)OC(C)(C)C (configuration not stated) | 96 to 98 |
| O=C(O)c1cc(/C=C/c2cccc(C(F)(F)F)c2)nc2ccc(Br)cc12 | 310 to 312 |
| Cc1ccc(S(=O)(=O)N2CCC(=O)CC2)cc1 | 125 to 127 |
| O=C(O)c1ccc(Nc2ccc(F)c(F)c2)c([N+](=O)[O-])c1 | 237 to 239 |
| CN(C)CC(N)=NO | 135 to 137 |

| SMILES | melting point [°C] |
| --- | --- |
| Sc1nnnn1C1CCCC1 | 123 to 125 |
| Cc1cc(-c2nnc(CCl)o2)c(C)o1 | 62 to 64 |
| Cc1nn(-c2ccccc2)c(C)c1C(O)C(F)(F)F (configuration not stated) | 162 to 164 |
| COc1ccc(/C=C/c2cc(C(=O)O)c3cc(Br)ccc3n2)cc1 | 295 to 297 |
| Cc1ccc(C(N)c2cccc(S(C)(=O)=O)c2)cc1 (configuration not stated) | 73 to 75 |
| Cc1ccc(CNC(=O)c2cccc(C#N)c2)cc1 | 134 to 136 |
| Nc1cccc(C(=O)Nc2cccc(F)c2)c1 | 123 to 125 |
| CC(C)(C)Sc1ccc(C(N)=S)cc1 | 163 to 165 |
| O=C1NC(=O)N(C2CCCCC2)C1=O | 187 to 189 |
| NS(=O)(=O)c1cccc(NC(=O)c2ccccc2Cl)c1 | 93 to 96 |
| CC(C)Nc1ccc(S(C)(=O)=O)cc1 | 111 to 113 |
| Nc1nc2ccccc2n2nnnc12 | 289 to 291 |
| COc1ccc(C(=O)O)cc1-c1ccc(C(C)(C)C)cc1 | 259 to 261 |
| COc1ccccc1C(C#N)NC(=O)OC(C)(C)C (configuration not stated) | 79 to 81 |
| COc1ccc(-n2c(S)nc3ccccc32)cc1 | 213 to 215 |
| COc1cc2ncc(O)nc2cc1OC | 266 to 268 |
| CCCc1cc(=O)[nH]c(-c2ccccc2)n1 | 149 to 151 |
| CC(N)Cc1cccc(O)c1 (configuration not stated) | 45 to 47 |
| NC(=NO)C1CCCC1 | 74 to 76 |

Next, values leading:

| melting point [°C] | SMILES |
| --- | --- |
| 142 to 144 | CN(C1CCCCC1)S(=O)(=O)c1ccc(N)cc1 |
| 50 to 52 | O=C(O)CCCOc1cccc(Br)c1 |
| 128 to 130 | CCOC(=O)c1noc(-c2cccc(F)c2-n2ccnc2)n1 |
| 163 to 165 | Nc1ccccc1NC(=O)Cc1cccs1 |
| 33 to 42 | O=S(=O)(Cl)c1ccc2c(c1)CCC2 |
| 166 to 168 | COC(=O)c1ccc2nnn(O)c2c1 |
| 179 to 181 | O=C(O)CCNC(=O)c1ccc2ccccc2c1 |
| 130 to 132 | O=C(NC(C(=O)O)c1ccccc1)OCc1ccccc1 (configuration not stated) |
| 169 to 171 | N#Cc1cc(Oc2ccc(CC(=O)O)cc2)ccn1 |
| 103 to 105 | CC(N)(C(N)=O)c1cccc(Cl)c1 (configuration not stated) |
| 147 to 149 | O=C(O)c1cc(S(=O)(=O)Cl)c(Br)cc1F |
| 193 to 195 | Nc1nnc(Cc2cccc(F)c2)s1 |
| 66 to 68 | Cc1ccc(CN(C)C)cc1N |
| 107 to 109 | NC1(CO)Cc2ccccc2C1 |
| 182 to 184 | Cc1cc(C(=O)O)nn1-c1ccccc1 |
| 107 to 109 | O=C(CCl)NCc1ccc(Cl)cc1 |
| 136 to 138 | CN(CCO)CC(=O)O |
| 73 to 75 | COc1ccc(N2CCN(C(=O)CCCl)CC2)cc1 |
| 188 to 192 | O=C(O)c1cccc(S(=O)(=O)NC2CC2)c1 |
| 124 to 126 | c1ccc(CC2CCN(c3ncnc4sccc34)CC2)cc1 |
| 90 to 92 | O=C(O)CNC(=O)c1cccc([N+](=O)[O-])c1 |

| melting point [°C] | SMILES |
| --- | --- |
| 109 to 111 | CCOc1cc(N2CCC(O)CC2)ccc1[N+](=O)[O-] |
| 156 to 158 | Cc1cccc(C2(C(=O)O)CCCC2)c1 |
| 144 to 148 | O=C(O)c1ccc(F)nc1 |
| 222 to 224 | Nc1nnc(C2CCCCC2)o1 |
| 139 to 141 | Cc1nn(CCCl)c(C)c1C(=O)O |
| 81 to 83 | O=C(O)Cc1ccc(S(=O)(=O)N2CCCCC2)s1 |
| 154 to 156 | CC(C(=O)NC1CCC(C(=O)O)CC1)n1cccn1 (configuration not stated) |
| 142 to 144 | CC(C)c1ccc(CCC(N)=O)cc1 |
| 110 to 112 | CC(=O)NC1CCCN(C(=O)CCl)C1 (configuration not stated) |
| 116 to 118 | O=C(O)C(Sc1ccccc1Cl)c1ccccc1 (configuration not stated) |
| 111 to 113 | COc1ccc(CCC(=O)O)cc1F |
| 59 to 61 | CC(CC(=O)O)C(=O)c1cccc(F)c1 (configuration not stated) |
| 183 to 185 | CCn1c(C)nc2cc(C(=O)NN)ccc21 |
| 132 to 134 | CCCn1nc(C(=O)O)ccc1=O |
| 109 to 111 | O=C(O)CC1OCCc2ccsc21 (configuration not stated) |
| 105 to 107 | Ic1nnc(-c2ccccc2)s1 |
| 100 to 102 | O=C(CCl)N1CCN(c2ncccn2)CC1 |
| 86 to 88 | CCOC(=O)c1cc(C)n(CC(=O)O)c1C |
| 94 to 96 | OCC1CN(Cc2ccccc2)CC1CO (configuration not stated) |
| 187 to 189 | Nc1nc(N2CCOCC2)ns1 |
| 67 to 69 | O=C(c1ccccc1)c1cc(Br)ccc1F |

| melting point [°C] | SMILES |
| --- | --- |
| 109 to 111 | Cc1cccc(OCC(=O)NN)c1 |
| 214 to 216 | O=C(O)c1cnn(-c2ccccc2)c1Br |
| 142 to 144 | CCOC(=O)/C(C#N)=C\Nc1ccccc1F |
| 133 to 135 | CCOc1ccc(C=C(C(=O)O)c2cccs2)cc1 |
| 94 to 96 | COC(=O)c1sc(-c2ccccc2)cc1O |
| 71 to 73 | O=S(=O)(c1ccc(S)nc1)N1CCOCC1 |
| 132 to 134 | Cc1cc(NC(C)C)ccc1C(N)=O |
| 112 to 114 | CS(=O)(=O)OCCn1cnc2ccsc2c1=O |
| 220 to 222 | Cc1cccc2sc(NC(=O)OCC(F)(F)F)nc12 |
| 138 to 140 | COc1ccc(C(=O)CCCC(=O)O)cc1 |
| 104 to 106 | CC(C)C(Br)C(=O)NCc1ccccc1F (configuration not stated) |
| 87 to 90 | COc1ccccc1NC(=O)CC#N |
| 208 to 210 | O=C(O)c1cnc(-c2ccsc2)s1 |
| 207 to 209 | Cc1ccc2nc(C3CC3)cc(C(=O)O)c2c1 |
| 94 to 96 | CCC(CC)(C(=O)O)c1ccc(Cl)c(Cl)c1 |
| 336 to 338 | Cc1ccc(C(=O)O)cc1NC(=O)NC(C)(C)C |
| 127 to 129 | CC(NC(=O)c1ccccc1N)c1ccccc1 (configuration not stated) |
| 148 to 150 | Nc1c(-c2ccccc2)ncn1C1CC1 |
| 99 to 101 | CCN(CC)c1ccc(S(=O)(=O)N2CCOCC2)cc1NC(=O)CCl |
| 219 to 221 | O=C(O)c1sc2cccc([N+](=O)[O-])c2c1Cl |
| 137 to 139 | O=C(O)C1CCCN(S(=O)(=O)c2ccc3ccccc3c2)C1 (configuration not stated) |

| melting point [°C] | SMILES |
| --- | --- |
| 183 to 185 | CCCOc1ccc(-c2nc(C(=O)O)cs2)cc1 |
| 108 to 110 | CC(C)CN1CCCC(C(=O)O)C1 (configuration not stated) |
| 66 to 68 | O=C(NCc1ccccc1)c1cc(Cl)ccn1 |
| 105 to 107 | COCC(=O)c1cccc([N+](=O)[O-])c1 |
| 176 to 178 | CC(C)C(C(N)=O)c1cccnc1 (configuration not stated) |
| 118 to 120 | Cc1ccc(C=CC(=O)O)o1 |
| 274 to 276 | Cc1cc(=O)[nH]c(C)c1C(=O)O |
| 77 to 79 | CC(=O)c1nc(-c2ccccc2)cs1 |
| 183 to 185 | CC(=O)CC(=O)Nc1ccc(NC(=O)C2CC2)cc1 |
| 74 to 76 | O=Cc1c(Cl)cccc1N1CCOCC1 |
| 199 to 201 | O=C(O)c1cnc(-c2ccccn2)s1 |
| 209 to 211 | O=C(O)CCN1C(=O)c2ccc(Br)cc2C1=O |
| 201 to 203 | O=S1CCNc2ccccc21 (configuration not stated) |
| 161 to 163 | O=C(O)c1ccc(Cn2cccc2)cc1 |
| 176 to 178 | CSc1cc(C)ccc1C(=O)O |
| 179 to 181 | O=C(O)c1cccnc1-n1ccnc1 |
| 107 to 109 | ON=C1CCCOc2ccc(Br)cc21 |
| 132 to 134 | Cc1cc(C)cc(C2(C(=O)O)CCC2)c1 |

— a melting point compilation (Tetko et al.)
